Assay results taken from patent publication US20190211020A1 (Agency for Science, Technology and Research, priority 2012, published 2019).
Where two headings read alike, the source gives them in different places.

Legend:
[1] = Pharmacokinetics assays (plasma and brain); type: in vivo; set-up: AUC(0-t) / AUC(0-inf): concentration or dose not given beside the values; conditions: for Plasma/Brain Ratio: in vivo; for AUC(0-t): read-out: Plasma AUC last; for Cmax: species, dose and route not given
[2] = test system: eIF4E Ser209 phosphorylation in Hela cells; assay: MNK cell-based assay (AlphaScreen SureFire, eIF4E Ser209 phosphorylation); conditions: Homo sapiens; eIF4E Ser209 phosphorylation, Hela cells, 2 hours; read-out: IC50 Hela
Procedure, shortened: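 Hela cells (30,000/well) exposed to test compound in serum-free medium for 2 h at 37 °C, then lysed. Phospho-Ser209 eIF4E quantified by AlphaScreen SureFire; IC50 obtained by non-linear regression of signal versus log compound concentration.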

[3] = test system: K562 cells (myelogenous leukemia) over-expressing eIF4E; assay: Cell cytotoxicity assay (CellTiter-Glo), K562; type: cell-based; conditions: for IC50: Homo sapiens, cell viability; for change of IC50 when treatment duration was extended from 48 hours to 6 days, K562: K562 cells over-expressing eIF4E
Experimental: (§1) Cancer cell lines, MV-4-11 (leukemia), P116.c139 (acute T cell leukemia) and D1.1 (acute T cell leukemia), were purchased from ATCC and cultured according to supplier's recommendations. K562 cells (myelogenous leukemia) over-expressing eIF4E, were also used for the cytotoxicity assay. For cells treated for 48 hours, 5000 cells were seeded in 70 μl of growth medium in black, flat-bottom 96-well plate. For cells treated for six days, 1000 cells were seeded in 70 μl of growth medium in black, flat-bottom 96-well plate. […] 50 μl of the diluted compounds was added to the cells and incubated at 37° C. in 5% CO2. After 48 hours or six days treatment, cell viability was determined by CellTiter-Glo Luminescent Cell Viability Assay (Promega, Madison, Wis.). 120 μl of the reagent was added to the cells and luminescence was measured using Tecan Safire Reader. Data was analysed with Graphpad Prism software and the figures represented indicate the half maximal inhibitory concentration (IC50). Error bars denote standard deviation (SD).

[4] = test system: MV-4-11 (leukemia); assay: Cell cytotoxicity assay (CellTiter-Glo), MV-4-11; type: cell-based; conditions: Homo sapiens, cell viability
Experimental: as §1

[5] = test system: D1.1 (acute T cell leukemia); assay: Cell cytotoxicity assay (CellTiter-Glo), D1.1; type: cell-based; conditions: for IC50: T-cell, cell viability
Experimental: as §1

[6] = test system: P116.c139 (acute T cell leukemia); assay: Cell cytotoxicity assay (CellTiter-Glo), P116.c139; type: cell-based; conditions: for IC50: T-cell, cell viability
Experimental: as §1

[7] = plasma, read-out: Plasma T1/2 (converted)
[8] = brain, read-out: Brain T1/2 (converted)
[9] = K562, 144 h, 6 days, read-out: IC50 after 6 days of treatment, K562
[10] = K562, 48 hours, read-out: IC50 after 48 hours of treatment, K562
[11] = MV4-11, 144 h, 6 days, read-out: IC50 after 6 days of treatment, MV-4-11
[12] = MV4-11, 48 hours, read-out: IC50 after 48 hours of treatment, MV-4-11
[13] = 144 h, 6 days, read-out: IC50 after 6 days of treatment, D1.1
[14] = 48 hours, read-out: IC50 after 48 hours of treatment, D1.1
[15] = 144 h, 6 days, read-out: IC50 after 6 days of treatment, P116.c139
[16] = 48 hours, read-out: IC50 after 48 hours of treatment, P116.c139

N#Cc1ccc(-c2cnc3ccc(-c4ccc(C(=O)N5CCNCC5)cc4)nn23)cc1 [Entry 6]
Brain AUC last ([1]; brain): 17 ng·h/g
Brain Cmax ([1]; brain): 10 ng/g
Tmax ([1]; brain, read-out: Brain Tmax): 15 min
Plasma/Brain Ratio [1]: 0.05
AUC(0-inf) ([1]; plasma): 359 ng·h/mL
AUC(0-t) ([1]; plasma): 350 ng·h/mL
half-life [1, 7]: 95.4 min
Tmax ([1]; plasma, read-out: Plasma Tmax): 15 min
Cmax ([1]; plasma): 275 ng/mL

N#Cc1ccc(-c2cnn3ccc(-c4ccc(C(=O)N5CCOCC5)cc4)nc23)cc1 [Entry 8]
Brain AUC inf ([1]; brain): 29267 ng·h/g
Brain AUC last ([1]; brain): 29166 ng·h/g
Brain Cmax ([1]; brain): 3967 ng/g
half-life [1, 8]: 158 min
Tmax ([1]; brain, read-out: Brain Tmax): 120 min
Plasma/Brain Ratio [1]: 0.53
AUC(0-inf) ([1]; plasma): 55100 ng·h/mL
AUC(0-t) ([1]; plasma): 54800 ng·h/mL
half-life [1, 7]: 167 min
Tmax ([1]; plasma, read-out: Plasma Tmax): 30 min
Cmax ([1]; plasma): 5970 ng/mL

CC(=O)Nc1cc(-c2ccc3ncc(-c4ccc(C#N)cc4)n3c2)ccc1C(=O)N1CCOCC1 [Entry 9]
Brain AUC inf ([1]; brain): 161 ng·h/g
Brain AUC last ([1]; brain): 156 ng·h/g
Brain Cmax ([1]; brain): 106 ng/g
half-life [1, 8]: 45.6 min
Tmax ([1]; brain, read-out: Brain Tmax): 30 min
Plasma/Brain Ratio [1]: 0.03
AUC(0-inf) ([1]; plasma): 5720 ng·h/mL
AUC(0-t) ([1]; plasma): 5720 ng·h/mL
half-life [1, 7]: 88.2 min
Tmax ([1]; plasma, read-out: Plasma Tmax): 15 min
Cmax ([1]; plasma): 3860 ng/mL

N#Cc1ccc(-c2cnc3cnc(-c4ccc(C(=O)N5CCOCC5)cc4)cn23)cc1 [Entry 10]
Brain AUC inf ([1]; brain): 775 ng·h/g
Brain AUC last ([1]; brain): 754 ng·h/g
Brain Cmax ([1]; brain): 469 ng/g
half-life [1, 8]: 41.4 min
Tmax ([1]; brain, read-out: Brain Tmax): 60 min
Plasma/Brain Ratio [1]: 0.06
AUC(0-inf) ([1]; plasma): 12800 ng·h/mL
AUC(0-t) ([1]; plasma): 12700 ng·h/mL
half-life [1, 7]: 66.6 min
Tmax ([1]; plasma, read-out: Plasma Tmax): 30 min
Cmax ([1]; plasma): 6400 ng/mL

CN1CCN(C(=O)c2ccc(-c3cn4c(-c5ccc(C#N)cc5)cnc4cn3)cc2)CC1 [Entry 1]
Brain AUC inf ([1]; brain): 625 ng·h/g
Brain AUC last ([1]; brain): 520 ng·h/g
Brain Cmax ([1]; brain): 290 ng/g
half-life [1, 8]: 83.4 min
Tmax ([1]; brain, read-out: Brain Tmax): 30 min
AUC(0-inf) ([1]; plasma): 7440 ng·h/mL
AUC(0-t) ([1]; plasma): 7420 ng·h/mL
half-life [1, 7]: 181 min
Tmax ([1]; plasma, read-out: Plasma Tmax): 15 min
Cmax ([1]; plasma): 2670 ng/mL

CN1CCN(C2CCN(C(=O)c3ccc(-c4ccc5ncc(-c6ccc(C#N)cc6)n5c4)cc3)CC2)CC1 [Example 133, 4-(6-(4-(4-(4-methylpiperazin-1-yl)piperidine-1-carbonyl)phenyl)imidazo[1,2-a]pyridin-3-yl)benzonitrile]
IC50 [2]: < 1000 nM
IC50 [3, 9]: 16 µM
IC50 [3, 10]: 23 µM
change of IC50 when treatment duration was extended from 48 hours to 6 days, K562 [3]: not influenced by the treatment duration
IC50 [4, 11]: 1500 nM
IC50 [4, 12]: 2800 nM
change of IC50 when treatment duration was extended from 48 hours to 6 days, D1.1 [5]: not influenced by the treatment duration
IC50 [5, 13]: 11.2 µM
IC50 [5, 14]: 15.8 µM
change of IC50 when treatment duration was extended from 48 hours to 6 days, P116.c139 [6]: decrease the IC50 by more than half-fold
IC50 [6, 15]: 4 µM
IC50 [6, 16]: 10.9 µM

CN1CCN(C(=O)c2ccc(-c3ccc4ncc(-c5ccc(C#N)cc5)n4c3)cc2)CC1=O [Entry 3]
Brain AUC inf ([1]; brain): 77 ng·h/g
Brain AUC last ([1]; brain): 59 ng·h/g
Brain Cmax ([1]; brain): 77.78 ng/g
half-life [1, 8]: 57.6 min
Tmax ([1]; brain, read-out: Brain Tmax): 15 min
Plasma/Brain Ratio [1]: 0.01
AUC(0-inf) ([1]; plasma): 4190 ng·h/mL
AUC(0-t) ([1]; plasma): 4120 ng·h/mL
half-life [1, 7]: 151 min
Tmax ([1]; plasma, read-out: Plasma Tmax): 15 min
Cmax ([1]; plasma): 3160 ng/mL

N#Cc1ccc(-c2cnc3ccc(-c4ccc(C(=O)N5CCOCC5)cc4)cn23)cc1 [Entry 7]
Brain AUC inf ([1]; brain): 2516 ng·h/g
Brain AUC last ([1]; brain): 2474 ng·h/g
Brain Cmax ([1]; brain): 678 ng/g
half-life [1, 8]: 123 min
Tmax ([1]; brain, read-out: Brain Tmax): 60 min
AUC(0-inf) ([1]; plasma): 26000 ng·h/mL
AUC(0-t) ([1]; plasma): 26000 ng·h/mL
half-life [1, 7]: 176 min
Tmax ([1]; plasma, read-out: Plasma Tmax): 15 min
Cmax ([1]; plasma): 7360 ng/mL

CN1CCN(C2CCN(C(=O)c3ccc(-c4ccc5ncc(-c6ccc(C#N)cc6)n5c4)cc3)CC2)CC1 [Entry 4]
Brain AUC last ([1]; brain): 184 ng·h/g
Brain Cmax ([1]; brain): 20 ng/g
Tmax ([1]; brain, read-out: Brain Tmax): 480 min
Plasma/Brain Ratio [1]: 0.3
AUC(0-inf) ([1]; plasma): 632 ng·h/mL
AUC(0-t) ([1]; plasma): 614 ng·h/mL
half-life [1, 7]: 143 min
Tmax ([1]; plasma, read-out: Plasma Tmax): 15 min
Cmax ([1]; plasma): 223 ng/mL

CN1CCN(C(=O)c2ccc(-c3ccc4ncc(-c5ccc(O)cc5)n4c3)cc2)CC1 [Example 175, (4-(3-(4-hydroxyphenyl)imidazo[1,2-a]pyridin-6-yl)phenyl)(4-methylpiperazin-1-yl)methanone]
IC50 [3, 9]: 21.2 µM
IC50 [3, 10]: 18.2 µM
change of IC50 when treatment duration was extended from 48 hours to 6 days, K562 [3]: not influenced by the treatment duration
IC50 [4, 11]: 300 nM
IC50 [4, 12]: 900 nM
change of IC50 when treatment duration was extended from 48 hours to 6 days, D1.1 [5]: not influenced by the treatment duration
IC50 [5, 13]: 10.1 µM
IC50 [5, 14]: 12.3 µM
change of IC50 when treatment duration was extended from 48 hours to 6 days, P116.c139 [6]: decrease the IC50 by more than half-fold
IC50 [6, 15]: 5.7 µM
IC50 [6, 16]: 12.5 µM

CN(C)C1CCN(C(=O)c2ccc(-c3cn4c(-c5ccc(C#N)cc5)cnc4cn3)cc2)CC1 [Entry 2]
Brain AUC inf ([1]; brain): 99 ng·h/g
Brain AUC last ([1]; brain): 71 ng·h/g
Brain Cmax ([1]; brain): 14.6 ng/g
half-life [1, 8]: 247 min
Tmax ([1]; brain, read-out: Brain Tmax): 15 min
Plasma/Brain Ratio [1]: 0.13
AUC(0-inf) ([1]; plasma): 536 ng·h/mL
AUC(0-t) ([1]; plasma): 527 ng·h/mL
half-life [1, 7]: 124 min
Tmax ([1]; plasma, read-out: Plasma Tmax): 15 min
Cmax ([1]; plasma): 227 ng/mL
